Columns and labels:
[1] = system: Klebsiella pneumoniae strain 3K25; test: Example 4: experimental infection in mice, cefotetan with or without native lactoferrin; format: in vivo; conditions: p.o. 1 h after 1×10^6 CFU/mouse
Method: (§1) For ED50 values, a range of amounts of antibiotics is given in the examples (e.g., penicillin G: 0.4, 0.2, 0.1, 0.05 mg/mouse). To calculate the ED50, groups of mice in the monotherapy groups and groups of mice in the combined therapy groups received the indicated amount of antibiotic (e.g., one group received 0.4 mg/mouse of penicillin G, one group received 0.2 mg/mouse of penicillin G, one group received 0.1 mg/mouse of penicillin G, one group received 0.05 mg/mouse of penicillin G).
The experimental design is similar to that of Example 3. The mice groups (n=6) were intraperitoneally injected with Klebsiella pneumoniae strain 3K25, 1×10^6 CFU/mouse, and one hour after the injection, orally active cephalosporin, cefotetan (2.0, 1.0, 0.5 and 0.25 mg/mouse) was orally administered with or without native lactoferrin (0.4 mg/mouse) in 0.2 ml physiological saline.

Escherichia coli #11 = test: Example 6: experimental infection in mice, ampicillin with or without apolactoferrin; format: in vivo, strain ddY; conditions: p.o. immediately after 1.2×10^6 CFU/mouse
Method: as §1
Male mice, strain ddY, five weeks old, weighing an average of 21.5 g, were randomly allocated into groups (n=10), and they were intraperitoneally injected with Escherichia coli #11, 1.2×10^6 CFU/mouse. Immediately after the injection, the untreated control group was orally given 0.2 ml of distilled water, the second through the fifth groups were treated once orally by ampicillin (8, 4, 2 and 1 mg/mouse), and the sixth through the ninth groups with ampicillin (4, 2, 1 and 0.5 mg/mouse) plus apolactoferrin (1 mg/mouse) in 0.2 ml of distilled water. The mice were fed ad libitum and observed for one week under the same conditions as described in Example 1. […] It is apparent from the results that lactoferrin not only potentiates the efficacy of the cephalosporin class but also the penicillin class of antibiotics.

Proteus mirabilis GN79 = test: Example 7: experimental infection in mice, ampicillin with or without native lactoferrin; format: in vivo, strain ddY; conditions: GN79, po, 168 h, 1.3 × 10^6 CFU/mouse
Method: as §1
Male mice, strain ddY, five weeks old, were randomly allocated into groups (n=10), and were intraperitoneally injected with Proteus mirabilis GN79 (1.3×10^6 CFU/mouse) or with Escherichia coli #11 (1.7×10^6 CFU/mouse) or with Klebsiella pneumoniae 3K25 (1.5×10^6 CFU/mouse). The doses are 1,000 times greater than the minimum lethal dose. Immediately after the injection, the first eight groups were orally given ampicillin, the second eight groups were orally given cephalexin, and the third eight groups were orally given cefaclor, respectively, each simultaneously with or without native lactoferrin (1 mg/mouse) in 0.2 ml of distilled water (see Table 7). All the mice were fed ad libitum and observed for one week under the same conditions as described in Example 1.

| Compound | ED50 ([1]; cefotetan combined therapy with native lactoferrin (0.4 mg/mouse)) [mg/mouse] | ED50 ([1]; cefotetan monotherapy) [mg/mouse] | ED50 (Escherichia coli #11; ampicillin combined therapy with apolactoferrin (1 mg/mouse)) [mg/mouse] | ED50 (Escherichia coli #11; ampicillin monotherapy) [mg/mouse] | ED50 (Proteus mirabilis GN79; ampicillin alone) [mg/kg] | ED50 (Proteus mirabilis GN79; ampicillin with lactoferrin (1 mg/mouse)) [mg/kg] |
| --- | --- | --- | --- | --- | --- | --- |
| CO[C@@]1(NC(=O)C2SC(=C(C(N)=O)C(=O)O)S2)C(=O)N2C(C(=O)O)=C(CSc3nnnn3C)CS[C@@H]21 (stereo partly drawn) [cefotetan] | 0.16 | 0.50 |  |  |  |  |
| CC1(C)S[C@@H]2[C@H](NC(=O)[C@H](N)c3ccccc3)C(=O)N2[C@H]1C(=O)O [ampicillin] |  |  | 0.75 | 6.02 | 133 | 24.9 |
